The first assay concerns the target Aldo-keto reductase family 1 member B1 (Bos taurus) (UniProt P16116). Nature of the assay: Inhibition of Bos taurus (bovine) aldose reductase isolated from lens using DL-glyceraldehyde as substrate at 1.8 mM by UV-Vis spectrophotometric analysis.
With `O=c1cc(-c2ccccc2)oc2c(I)cc(Cl)cc12`, the inhibition (commonly the drop in the measured response relative to a control, in per cent) worked out at 70%.
Still for that read-out and setting: as for `Cc1c(Cl)cc2c(=O)cc(-c3ccc(Cl)cc3Cl)oc2c1I`, the figure is 80%; as for `O=c1cc(-c2ccccc2Cl)oc2ccccc12`, 60%; as for `O=c1cc(-c2ccc(Cl)cc2Cl)oc2c(I)cc(Cl)cc12`, 80%.
Same read-out and setting: as for `Cc1c(Cl)cc2c(=O)cc(-c3ccccc3)oc2c1I`, the figure is 80%.

A further assay deals with Aldo-keto reductase family 1 member B1 (Homo sapiens, UniProt P15121). Nature of the assay: Inhibition of aldose reductase (unknown origin).
In the case of `COc1cc(-c2cc(=O)c3c(O)cc(O)cc3o2)cc(OC)c1O` [TRICIN], the IC50 (commonly the concentration at which inhibition is half-maximal) stood at 2.03 µM.
On the same count and under the same terms, with `O=c1cc(-c2ccc(O)c(O)c2)oc2cc(O)c([C@@H]3O[C@H](CO)[C@@H](O)[C@H](O)[C@H]3O)c(O)c12` [ISOORIENTIN] the figure was 1.91 µM; with `O=C(O)/C=C/c1ccc(O)cc1` [COUMARIC ACID], 0.14 µM.

The next assay deals with Aldo-keto reductase family 1 member B1 (Rattus norvegicus, UniProt P07943). Nature of the assay: Inhibition of Rattus norvegicus (rat) aldose reductase isolated from lens using DL-glyceraldehyde as substrate after 30 min by fluorometric analysis.
The molecule `O=c1cc(-c2ccc(O)cc2)oc2c([C@@H]3O[C@H](CO)[C@@H](O)[C@H](O)[C@H]3O)c(O)cc(O)c12` [VITEXIN] displayed an IC50 of 2.03 µM.

These data come from ChEMBL document CHEMBL3045846, “Experimental validation and docking studies of flavone derivatives on aldose reductase involved in diabetic retinopathy, neuropathy, and nephropathy” (Med Chem Res, 2011).
